{"source": "patent US11129801B2", "about": "(SigmaThera SAS, priority 2016, dated 2021)", "test_system": "rat medium spiny neurons (DARPP32 positive neurons)", "experiment": "Survival of primary medium spiny neurons injured by glutamate", "assay_type": "cell-based", "conditions": "glutamate 40 μM, 20 min", "procedure": "Rat MSN of striatum were cultured as described (Ivkovic S, et al, (1999) The Journal of neuroscience: the official journal of the Society for Neuroscience 19(13): 5409-5419).\nBriefly pregnant female rats of 15 days gestation were killed by cervical dislocation (Rats Wistar; Janvier) and the foetuses removed from the uterus. The embryonic midbrains were removed and placed in ice-cold medium of Leibovitz 15 (L15; PanBiotech, Ref P04-27055, Batch: 8810315) containing 2% of Penicillin-Streptomycin (PS; PanBiotech, ref: P06-07100, Batch: 7511015) and 1% of bovine serum albumin (BSA; PanBiotech, Ref: P06-1391100, Batch: H140904). Only the ventral portions of the mesencephalic flexure were used for the cell preparations as this region of the developing brain is rich in dopaminergic neurons. The midbrains were dissociated by trypsinisation for 20 minutes (min) at 37° C. (Trypsin EDTA 1×; PanBiotech, Ref: P10-023100, batch: 1670415). The reaction was stopped by the addition of Dulbecco's modified Eagle's medium (DMEM; PanBiotech, Ref: P04-03600, Batch: 9021115) containing DNase I grade II (0.1 mg/ml; PanBiotech, Ref: P60-37780100, Batch: H140508) and 10% of fetal calf serum (FCS; Invitrogen, Ref: 10270-098, Batch: 41G8542K). Cells were then mechanically dissociated by 3 passages through a 10 ml pipet. Cells were then centrifuged at 180×g for 10 min at 4° C. on a layer of BSA (3.5%) in L15 medium. The supernatant was discarded and the cell pellets were re-suspended in a defined culture medium consisting of Neurobasal (Invitrogen, Ref: 21103, Batch: 1754639) supplemented with B27 (2%; Invitrogen, ref: 17504, batch: 1799273), L-glutamine (2 mM; PanBiotech, Ref: P04-80100, Batch: 6620314) and 2% of PS. Viable cells were counted in a Neubauer cytometer using the trypan blue exclusion test. The cells were seeded at a density of 70000 cells/well in 96 well-plates (pre-coated with poly-D-lysine; Greiner, Ref: E150033VJ) and were cultured at 37° C. in a humidified air (95%)/CO2 (5%) atmosphere. Half of the medium was changed every 2 days with fresh medium. […]", "data": [{"molecule": "CCC(C/C=C/c1ccccc1)(c1ccccc1)N(C)CC1CC1", "note": "(single isomer, unassigned; (+)) [igmesine, (+)-(E)-N-(cyclopropylmethyl)-N-methyl-3,6-diphenylhex-5-en-3-amine]", "values": [{"measurement": "DARPP32 positive neurons", "setting": "0.3 μM", "value": "89.28 % of the control"}, {"measurement": "DARPP32 positive neurons", "setting": "1 μM", "value": "81.60 % of the control"}]}, {"molecule": "BDNF: Brain-derived neurotrophic factor, used as a reference compound (protein, UniProt P23560 19-247, looked up) Neurotrophic factor BDNF …: APMKEANIRGQGGLAYPGVRTHGTLESVNGPKAGSRGLTSLADTFEHVIEELLDEDQKVRPNEENNKDADLYTSRVMLSSQVPLEPPLLFLLEEYKNYLDAANMSMRVRRHSDPARRGELSVCDSISEWVTAADKKTAVDMSGGTVTVLEKVPVSKGQLKQYFYETKCNPMGYTKEGCRGIDKRHWNSQCRTTQSYVRALTMDSKKRIGWRFIRIDTSCVCTLTIKRGR", "values": [{"measurement": "DARPP32 positive neurons", "setting": "10 ng/mL", "value": "90.14 % of the control"}]}]}
